This test addresses T1, MeCP2-TBL1 interaction (MeCP2-SmBiT / TBL1-LgBiT) (Mus musculus, UniProt Q9QXE7).
T1 construct: expressed in transfected cells; crude lysate used as a cell-free assay
T1 sequence (Q9QXE7 166-527): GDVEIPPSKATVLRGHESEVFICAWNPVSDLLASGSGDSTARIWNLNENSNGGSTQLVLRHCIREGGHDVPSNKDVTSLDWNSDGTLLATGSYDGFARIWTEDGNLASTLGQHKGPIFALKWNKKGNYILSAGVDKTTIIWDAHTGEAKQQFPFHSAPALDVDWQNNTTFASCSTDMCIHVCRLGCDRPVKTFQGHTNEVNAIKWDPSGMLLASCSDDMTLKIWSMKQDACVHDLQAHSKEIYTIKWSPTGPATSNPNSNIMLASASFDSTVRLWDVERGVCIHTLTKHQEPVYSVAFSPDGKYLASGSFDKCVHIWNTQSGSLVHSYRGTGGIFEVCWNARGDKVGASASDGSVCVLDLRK
The experiment in a line: MeCP2-TBL1 NanoLuc luciferase complementation assay (cell-free, extracts of transfected HEK293 cells). The test is classed as binding, human. A digest of the protocol: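 Cell-free split NanoLuc: lysate of HEK293 cells co-expressing the MeCP2 C-terminal half-SmBiT and TBL1 WD domain-LgBiT, mixed 1:1 with furimazine. After 30 min at room temperature, luminescence was plate-median normalized.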

The mark [1] stands for this setting: primary screen of the Asinex library, sheet "Sargen output Asinex library", one well per compound.
The mark [2] stands for this setting: primary screen of Asinex library, single well per compound.
[3] abbreviates: primary screen of the Asinex library, sheet "Sargen output Asinex library", one well per compound, Batch Ref. 1.

Ends that are not written are not given here.

As to `NC(=O)c1cc(CC2CCCN(C(=O)c3ccnc(Cc4ccccc4)c3)CC2)ncn1` (stereo not drawn) [BDH_33521416], under setting [1], the Inhibition percent is recorded as -0.17%.
Regarding `O=C(CN1C[C@@H](c2cc(F)cc(F)c2)[C@@]2(CCCCC(=O)N2)C1)Nc1ccnn1C1CCCC1` [BDH_33619464], the Inhibition percent under setting [1] stood at 4.29%.
Consider `CC1(C)Oc2c(cccc2C(F)(F)F)[C@@H]2O[C@@H]3CCN(C(=O)CCCc4cn[nH]c4)[C@@H]3C[C@H]21` [BDG_34130346], for which the Inhibition percent under setting [2] was determined as 7.09.
`O=C(CN1CCc2ccccc2C1)N1CCCC2(CC1)CN(c1cccc(Cl)c1)C(=O)O2` (stereo not drawn) [BDH_32295686]: the Inhibition percent under setting [3] is reported as 0.75%.
In the case of `Cc1ccc(Oc2cc(C)nc(C3CCCCN3C(=O)c3ccnc(-c4cnn(C)c4)c3)n2)cc1` (stereo not drawn) [BDH_32357088], the Inhibition percent under setting [1] is 0.88%.
For `CN(CCOc1ccccc1)C(=O)c1c(O)ccc2c1O[C@@H]1C[C@H]3C[C@H](C3(C)C)[C@]1(O)[C@H]2O` [BDG_33899827], the Inhibition percent under setting [3] worked out at 2.70%.
As to `C[C@@H]1CC[C@@H]2[C@@H](C1)c1c(ccc(C(=O)NCC(C)(C)CN3CCCC3)c1O)OC2(C)C` [BDG_34018827], under setting [2], the Inhibition percent was 1.80.
For `Cc1c[nH]c(-c2cncc(CC3CCN(C(=O)c4ccc(Cc5ccccc5F)nc4)CC3)n2)n1` [BDH_33521764], the Inhibition percent under setting [3] worked out at 0.73%.
With `Cc1nonc1COc1ccccc1C(=O)N1C2CCC1CC(Cc1cnc3ccccc3c1)C2` (stereo not drawn) [BDH_32356179], the Inhibition percent under setting [2] came out at 3.35.
On to `Cc1ccc2c(c1)OC1(CCN(Cc3cscn3)CC1)[C@H]1CCCO[C@H]21` [BDG_33900204], for which, under setting [3], the Inhibition percent is on record as 4.69%.
In the case of `COc1cccc(Cc2cnc(C3CCCCN3C(=O)Cc3ccccc3OC)o2)c1` (stereo not drawn) [BDE_33514656], the Inhibition percent under setting [1] stood at 2.98%.
For the compound `C[C@]12C[C@@H](Cc3ccccc3)N(C(=O)CCNC(=O)c3cccnc3)[C@H]1CCCC(=O)N2` [BDG_33627395], under setting [2], the Inhibition percent came out at 0.80.
Regarding `COc1ccccc1-c1ccc(CN2C[C@@H](c3ccccc3F)[C@@]3(CCCC(=O)N3)C2)cc1` [BDF_20367643], the Inhibition percent under setting [3] is recorded as 18.11%.
As for `O=C(COc1ncnc2ccccc12)N1CCC[C@@]2(C[C@@H](Oc3ccc(F)c(Cl)c3)CO2)C1` [BDH_33516387], the Inhibition percent under setting [2] was found to be 6.08.
Regarding `CNC(=O)c1ccc(-c2cccc(C3CN(CC(=O)NCc4ccccn4)CCO3)n2)cn1` (stereo not drawn) [BDF_25324043], the Inhibition percent under setting [1] came out at 1.99%.
For `CC1(C)Oc2c(O)cccc2[C@H]2O[C@H]3CCN(CC(=O)N4CC(=O)Nc5ccccc54)[C@@H]3C[C@@H]21` [BDG_34134040], the Inhibition percent under setting [1] is 2.67%.
Turning to `C[C@]12C[C@@H](Cc3ccccc3)N(C(=O)c3cccc(Cn4ccnc4)c3)[C@H]1CCCC(=O)N2` [BDH_32339936], the Inhibition percent under setting [2] was 5.72.
Regarding `Cc1nonc1COc1ccccc1C(=O)N1CCCC(Cc2nccn3cccc23)CC1` (stereo not drawn) [BDH_32360822], the Inhibition percent under setting [1] stood at 2.59%.
`CC(C)N1CC[C@H]2O[C@H]3c4ccccc4OC(C)(C)[C@@H]3C[C@H]21` [BDG_33900670]: under setting [1], the Inhibition percent was -3.00%.
As to `COc1ccc([C@@H]2C[C@]3(C)NC(=O)CCC[C@@H]3N2CC(=O)NCc2nc3ccccc3n2C)cc1` [BDH_33623015], the Inhibition percent under setting [1] turned out to be 0.43%.
Consider `CC(C)(C)OC(=O)Nc1cc(-c2c[nH]nc2C2CCCCN2C(=O)OC(C)(C)C)ccn1` (stereo not drawn) [BDD_27845058], for which, under setting [3], the Inhibition percent stood at 10.59%.
What is called inhibition is the change of the read-out against control, counted positive when it falls. For “LSSWVLLMK [AAT, alpha-1 antitrypsin fragment 235–243, reference compound]”, for the setting “20 µM, n = 7, t-test”, the “inhibition in MeCP2-TBL1 assay compared with control PKA-based assay, individual validation” value is on record as “statistically significantly greater”. Also, for the setting “0.3–60 μM”, the “extent of MeCP2-TBL1 inhibition reached within the tested concentration range” value is “able to return the luminesce signal back to baseline”. The “separation between MeCP2-TBL1 inhibition and inhibition of the PKA control in dose response” value (0.3–60 μM, PKA-based assay run in parallel) is recorded as “clear separation”. In addition, the inhibition at 20 µM (ApexBio library screen, 20 µM, threshold SSMD* ≥ 3, read-out: inhibition in MeCP2-TBL1 assay after adjusting for activity in the PRKACA-PRKAR2A assay) was no less than 35%.
As to `O=C(c1ccccc1Cn1ccnc1)N1CCCC(c2cncc(Oc3ccccc3)n2)C1` (stereo not drawn) [BDH_32338420], the Inhibition percent under setting [3] was determined as 3.75%.
Take `CN(Cc1ccc(F)cc1)[C@@H]1[C@@H](O)[C@H](Oc2cccc(F)c2)C[C@H]1NC(=O)c1cccc(C(=O)O)c1` [BDG_34135616]: the Inhibition percent under setting [2] worked out at 1.33.
For `O=C(c1cccc(Cn2ccnc2)c1)N1CCCC(c2nccnc2Oc2ccccc2)C1` (stereo not drawn) [BDH_32339912], the Inhibition percent under setting [1] is -0.06%.
With `O=C(N1CCC(Cc2ccc3ncccc3c2)CC1)C1(c2ccccc2)CCOCC1` [BDH_32341682], the Inhibition percent under setting [2] amounted to 1.41.
Take `Cc1cc(Oc2ccccc2F)nc(C2CCN(C(=O)c3cncc(-c4cncnc4)c3)CC2)n1` [BDH_32370406]: the Inhibition percent under setting [1] was found to be 0.98%.
As for `CC(=O)N[C@@]12CN(CC(=O)Nc3cccc(C(F)(F)F)c3)CC[C@@H]1[C@@H](c1ccccc1)N(C)C2` [BDH_33616433], under setting [1], the Inhibition percent was -0.29%.
Regarding `Cc1nc2cc(NC(=O)CN3C[C@@H](c4cc(F)cc(F)c4)[C@@]4(CCCCC(=O)N4)C3)ccc2n1C` [BDH_33617993], under setting [3], the Inhibition percent is 1.15%.
On to `O=C1CCCN1CCOc1cccc(C(=O)N2CCCC(Cc3cccc4cnccc34)CC2)c1` (stereo not drawn) [BDH_32360253], for which, under setting [1], the Inhibition percent is 1.74%.
With `CN1CCN(c2cc(C(=O)N3CCCCC3CCNC(=O)c3ccccc3)ccn2)CC1` (stereo not drawn) [BDH_32345153], under setting [2], the Inhibition percent was -1.36.
On to `COc1ccccc1-c1ccc(CN2C[C@@H](c3cccc(NC(C)=O)c3)[C@@]3(CCCCC(=O)N3)C2)cc1` [BDD_23570835], for which the Inhibition percent under setting [3] worked out at 5.89%.
As for `COc1ccccc1Cc1ccc(C(=O)N2CCCC3(CC2)CN(c2ccccc2)C(=O)O3)cn1` (stereo not drawn) [BDH_32296020], the Inhibition percent under setting [1] is -0.57%.
On to `NC(=O)c1cccc(-c2cccc(C3CN(C(=O)CCc4cccc(Cl)c4)CCO3)n2)c1` (stereo not drawn) [BDF_25272769], for which, under setting [3], the Inhibition percent amounted to 7.95%.
Still for that read-out and setting: under `CC1(C)Oc2cc(O)ccc2[C@@H]2O[C@@H]3CCCN(C(=O)CCCC(=O)O)[C@@H]3C[C@H]21` [BDG_34129513] stands 5.44%.
Consider `CC(C)CCC[C@@]1(C)Oc2cc(O)ccc2[C@H]2OCC3(CCNCC3)C[C@@H]21` [BDG_34020305], for which the Inhibition percent under setting [2] was 19.22.
Take `COc1cccc2c1OC(C)(C)[C@H]1CC3(CCN(C(=O)CCCc4ccncc4)CC3)CO[C@H]21` [BDG_33693373]: the Inhibition percent under setting [1] is -2.47%.
Consider `Cn1c(=O)c2ccc(C3CCCCN3C(=O)c3cc[nH]n3)nc2n(Cc2ccccc2)c1=O` (stereo not drawn) [BDD_26868519], for which, under setting [1], the Inhibition percent is 4.40%.
On to `CC1(C)Oc2c(O)cccc2[C@@H]2O[C@@H]3CCN(C(=O)CCCc4cn[nH]c4)C[C@@H]3C[C@H]21` [BDG_34130377], for which, under setting [2], the Inhibition percent was 1.08.
In the case of `Cn1cc(-c2cc(C(=O)N3CCC(c4cncc(-c5cccc(Cl)c5)n4)CC3)ccn2)cn1` [BDH_32366963], under setting [3], the Inhibition percent is 1.59%.
In the case of `O=C1CCCC[C@]2(CN(C(=O)CCCc3cn[nH]c3)C[C@H]2c2ccccc2F)N1` [BDG_34130330], under setting [2], the Inhibition percent is -3.21.
Consider `Cc1ccc2ncnc(NCCC(=O)N3CCCCC3c3cc(C(=O)NC4CCCC4)[nH]n3)c2c1` (stereo not drawn) [BDE_33629308], for which, under setting [1], the Inhibition percent worked out at 0.99%.
On to `COCC(=O)N1CC[C@H]2O[C@H]3c4ccccc4OC(C)(C)[C@@H]3C[C@H]21` [BDG_33900725], for which the Inhibition percent under setting [1] turned out to be 0.0324%.
Take `CC1(C(=O)N2CCCC(Cc3cccc4ccncc34)CC2)CCN(C(=O)c2ccccc2)CC1` (stereo not drawn) [BDH_32360998]: under setting [3], the Inhibition percent is -2.76%.
As for `CCc1nnsc1C(=O)N(CC)[C@H]1CCO[C@@H](c2cccc(-c3cncnc3)c2)C1` [BDF_23117916], the Inhibition percent under setting [1] is given as -3.67%.
For `CC(=O)N1CCc2nc(C3CCN(C)CC3)nc(NCCCN(C)c3ccccc3)c2C1` [BDE_25368265], under setting [1], the Inhibition percent is -2.49%.
On to `C[C@@]12C[C@H]3[C@H](Cc4ccccc4)N[C@@H]1CCCC[C@@H]2N3C(=O)CNC(=O)c1ccccc1` [BDG_33503003], for which the Inhibition percent under setting [3] was determined as 1.11%.
`Cn1cc(-c2ccc(C(=O)N3CCCC(c4cccc(Cc5ccc(F)cc5)n4)C3)cn2)cn1` (stereo not drawn) [BDH_32365364]: under setting [3], the Inhibition percent was 4.12%.
`Cc1nc(N(C)C)cc(C2(C)CCCN(C(=O)c3ccc(Cl)c(N4CCOCC4)c3)C2)n1` (stereo not drawn) [BDH_32364491]: the Inhibition percent under setting [3] is recorded as -1.79%.
Turning to `CN1C(=O)C2(CCN(C(=O)c3cccc(Nc4ncccn4)c3)CC2)CC1Cc1ccc(F)cc1` (stereo not drawn) [BDH_32371589], the Inhibition percent under setting [2] is 8.79.
For the compound `Cc1c(C(=O)N2CCC(C3(C)CCCCN(CCc4ccccc4)C3=O)CC2)cnn1C` (stereo not drawn) [BDE_25215150], the Inhibition percent under setting [3] is -0.77%.
With `COc1cccc(Cc2cccc(C3CCCN3C(=O)Cc3ccncc3)n2)c1` (stereo not drawn) [BDD_27854270], under setting [1], the Inhibition percent is -2.15%.
Take `CC(C)C[C@H]1CN(C(=O)CCn2c(=O)oc3cc(Cl)ccc32)CC[C@H]1Nc1cccc(F)c1` [BDH_34035644]: the Inhibition percent under setting [3] is 1.76%.
With `CN(C)CC(=O)N1CCCC(C)(C(=O)N2CCC(c3cccc(Cc4ccccc4)n3)CC2)C1` (stereo not drawn) [BDH_32359557], the Inhibition percent under setting [3] stood at 2.74%.
